Measurements published in US11299710B2, “Brown adipocyte progenitors in human skeletal muscle” (ENERGESIS PHARMACEUTICALS, INC., priority 2011, dated 2022).
Several values for one entry are separate records, joined by “and”; a condition that tells them apart may be missing. Identical values can stand only once.

B1: BMP7: recombinant human bone morphogenic protein-7 from R&D Systems (protein, UniProt P18075 293-431, looked up)
Bone morphogenetic protein 7: STGSKQRSQNRSKTPKNQEALRMANVAENSSSDQRQACKKHELYVSFRDLGWQDWIIAPEGYAAYYCEGECAFPLNSYMNATNHAIVQTLVHFINPETVPKPCCAPTQLNAISVLYFDDSSNVILKKYRNMVVRACGCH

What was measured:
[1] = test system: human fetal muscle-derived CD31- cells; assay: UCP1 mRNA expression by quantitative RT-PCR in CD31- cells; assay type: cell-based; settings: day 16 of differentiation; normalized with cyclophilin A; rosiglitazone 1 microM in MDM from day 0; BMP7 6 nM 2 days before day 0 then MDM
Method: UCP1 mRNA expression in human fetal muscle-derived CD31− cells at day 16 of differentiation were measured.
All the cells were grown for 3 days in proliferation medium (EGM2) and then (on day 0) placed for 16 days in adipogenic differentiation medium (Minimal Differentiation Medium, MDM). The “EGM2” cells were maintained in EGM2 medium all along. Rosiglitazone (1 microM) was added from day 0 and kept in the medium until the end of the study. BMP7 (6 nM) was added 2 days before day 0 and removed at day 0. Effects of differentiation medium (MDM vs. EGM2), rosiglitazone (MDM+rosi vs. MDM) and BPM7 (MDM+BMP7 vs. MDM) are shown as fold change (as compared to EGM2 cells) on UCP1 mRNA expression in human muscle-derived brown adipocyte progenitor cells (CD31-). […]
Quantitative real-time PCR was performed using ABI rapid thermal cycler system and a SYBR Green PCR master mix (Applied Biosystems, Foster City, Calif.), or an ABI 7300 Real-time PCR instrument, a TaqMan Gene Expression Master Mix (Applied Biosystems #4369016) and TaqMan Gene Expression Pre-formulated Assays for human uncoupling protein-1 (GenBank NM_021833) (Applied Biosystems Assay ID Hs01084772_m1, TaqMan Gene Expression Assay part #4351372) and for human peptidylprolyl isomerase A “cyclophilin A” (GenBank NM_021130) (Applied Biosystems Assay ID Hs99999904_m1, TaqMan® Gene Expression Assay part #4448485). […]

[2] = test system: CD31- cells; assay: Quantification of UCP1 protein by fluorescence immunohistochemistry in CD31- cells; assay type: cell-based, human; settings: rosiglitazone 1 μM in MDM from day 0, 15 days
Text: Using this method, UCP1 staining can be evaluated using automated high content imaging. GE Healthcare's InCell 1000 High Content Imager combines automated microscopy with high content image analysis software (InCell Developer Toolbox). The reference compound rosiglitazone was used to promote the differentiation of the CD31− cells and increase the expression of UCP1. Using a primary antibody that recognizes UCP1, Abcam ab23841, and a secondary antibody, Alexafluor 488 goat anti-rabbit antibody, we can quantify relative UCP1 levels per cell.
Referring to FIGS. 17A-17B, culturing and differentiation of CD31− cells into brown adipocytes were performed as described in Methods without (FIG. 17A) or with (FIG. 17B) rosiglitazone (1 μM) added to the adipogenic medium (MDM) from day 0. […] Alexafluor 488 goat anti-rabbit antibody was used to quantify relative UCP1 levels (green). […] UCP1 signal intensity was measured using the GE Developer Toolbox software on images collected on the InCell 1000 Automated High Content Imager. […]
Culturing and differentiation of CD31− cells into brown adipocytes were performed using adipogenic differentiation medium lacking (Minimal Differentiation Medium, MDM) or containing 1 μM rosiglitazone (Reference Differentiation Medium, RDM). […] As a readout, total intensity of UCP1 signal within the cell was used, normalized to cell number.

[3] = test system: UCP1 mRNA in human skeletal muscle (vastus lateralis); assay: UCP1 mRNA expression in skeletal muscle biopsies before and after rosiglitazone treatment in vivo
Method: Since the PPARγ agonist rosiglitazone was a strong inducer of UCP1 mRNA expression in muscle CD34+ cells in culture, the effect of this compound in vivo in humans was investigated. Vastus lateralis muscle biopsies from 7 obese patients with type 2 diabetes mellitus treated for the management of their metabolic syndrome with rosiglitazone were used. The biopsies were obtained before and after 8 weeks of treatment with rosiglitazone (2×4 mg per day). […] In that study rosiglitazone, concomitantly with the improvement in insulin sensitivity, increased the level of expression of UCP1 in muscle by about 1.6-fold. […] The results are the means±s.e.m. of arbitrary values normalized using the corresponding cyclophilin A values (n=7, *p<0.05 vs. control).
In FIG. 5, showing UCP1 mRNA levels in skeletal muscle biopsies from a patient group (n=7), “control” corresponds to levels before treatment, and “Rosi” corresponds to levels after treatment (8 weeks) with rosiglitazone. Being a longitudinal study the effect of rosiglitazone on UCP1 levels in each individual (comparison of individual values for the “control”-before and “Rosi”-after conditions) were determined. Starting with 25 ng cDNA (produced by reverse transcription of RNA) the threshold of detection (Ct) during real-time PCR was about 22 for UCP1 and about 18 for cyclophilin. The effect of rosiglitazone (UCP1 level at end of treatment vs. before treatment) were as follows: […]
Quantitative real-time PCR was performed using ABI rapid thermal cycler system and a SYBR Green PCR master mix (Applied Biosystems, Foster City, Calif.), or an ABI 7300 Real-time PCR instrument, a TaqMan Gene Expression Master Mix (Applied Biosystems #4369016) and TaqMan Gene Expression Pre-formulated Assays for human uncoupling protein-1 (GenBank NM_021833) (Applied Biosystems Assay ID Hs01084772_m1, TaqMan Gene Expression Assay part #4351372) and for human peptidylprolyl isomerase A “cyclophilin A” (GenBank NM_021130) (Applied Biosystems Assay ID Hs99999904_m1, TaqMan® Gene Expression Assay part #4448485). Cyclophilin A was used as a control to account for any variations due to the efficiency of the reverse transcription. The upstream and downstream oligonucleotide primers were chosen on both sides of an intron to prevent amplification of contaminating genomic DNA.
Primers used for real time quantitative PCR in human skeletal muscle are as follows:
Data are expressed as means±s.e.m. Significances were evaluated using the unpaired Student's t-test. A paired Student's t-test was used to determine the effects of rosiglitazone on human skeletal muscle UCP1 mRNA levels. Significances were set at p<0.05.

[4] = test system: human fetal muscle CD34+ cells; assay: UCP1 mRNA expression by quantitative RT-PCR in cultured fetal muscle CD34+ cells; assay type: cell-based; settings: rosiglitazone 1 μM
Method: UCP1 mRNA expression in fetal muscle CD34+ cells could be modulated by drug treatment. Cell-permeating cAMP derivatives strongly stimulated (7 to 8-fold) UCP1 mRNA expression in both primary cultured and expanded cells. The effects of cAMP derivatives, 8-bromo-cAMP, 0.25 mM or (4-chlorophenylthio)-cAMP, 0.25 mM (cAMP) on UCP1 mRNA expression in CD34+ cells in primary culture (PC) or expanded up to passage 3 (P3) are shown in FIG. 3B. All the cells were grown for 4-6 days in EGM2 medium and then placed for 8-12 days in the adipogenic medium described under Materials and Methods. The results are means±s.e.m. of arbitrary values normalized using the corresponding cyclophilin A values. […]
Rosiglitazone, a PPARγ agonist, had no effect in primary culture cells but strongly stimulated (8-fold) UCP1 mRNA expression in expanded cells. The results are expressed as in FIG. 3B (**p<0.01, n=4-7). […]
Total cell RNA was prepared using the kit NucleoSpin® RNAII (Clontech, Palo Alto, Calif.), Extract-all solution (Eurobio, Courtaboeuf, France) or PureLink RNA Isolation Kit (Invitrogen #12183-016) and quantified by Biophotometry (Biophotometer, Eppendorf). […]
Arbitrary units were determined by normalizing target mRNA levels to cyclophilin mRNA levels (based on Cts), wherein the cyclophilin levels were first divided by 100,000 for ease of reference. […]

[5] = test system: CD31+ cells (CD34+/CD45-/CD56-/CD146-/CD31+); assay: Differentiation of CD31+ cells in adipogenic medium; assay type: cell-based, human; settings: MDM with or without rosiglitazone or BMP7
Method: (§1) With the aim of further purifying the CD34+ cells in search for the purest physiological brown adipocyte progenitors, stroma-vascular cells were purified from two independent samples of human fetal skeletal muscle (18-19 weeks of gestation). Following the CD45, CD56, CD34, and CD146 sorting described above, an additional step of FACS sorting using an anti-CD31 antibody was performed. The cells were sorted based on the presence of the mature endothelial cell surface marker CD31 (CD31+) or absence of that marker (CD31-). It was hypothesized that the CD31− subpopulation may be a purer progenitor of human brown adipocytes. The CD31− cell fraction amounted to about 80% of the CD34+ cell population derived from skeletal muscle. For purpose of simplicity, CD34+/CD45−/CD56−/CD146−/CD31− are called “CD31−” cells [EMC309 (CD31−) and EMC314 (CD31−)]. CD34+/CD45−/CD56−/CD146−/CD31+ are called “CD31+” cells [EMC309 (CD31+) and EMC314 (CD31+)]. In addition, the myogenic progenitor cells expressing the cell surface antigen CD56 (CD56+) were also sorted and cultured: CD34+/CD45−/CD56+ (from EMC314) and CD45−/CD56+ (from EMC309) are called “CD56+” cells [EMC309 (CD56+) and EMC314 (CD56+)].
(§2) The sorted cells (CD31−, CD31+, and CD56+ cell populations) were grown under the same conditions as described above, i.e., 2-4 days in proliferation medium (EGM2) and 10-16 days in adipogenic differentiation medium. […]

[6] = test system: CD31- cells (CD34+/CD45-/CD56-/CD146-/CD31-) from human fetal skeletal muscle; assay: Differentiation of CD31- cells into adipocyte-like multilocular cells / brown adipocytes; assay type: cell-based
Method: as §1, §2

[7] = test system: CD56+ cells; assay: Differentiation of CD56+ cells in adipogenic medium; assay type: cell-based, human; settings: MDM with or without rosiglitazone or BMP7
Method: as §1, §2

Molecule	increase of UCP1 expression compared to EGM2 control condition [1]	UCP1 intensity per nucleus [2]	increase of level of UCP1 protein ([2]; vs without rosiglitazone) [fold]	increase of level of expression of UCP1 in muscle ([3]; 7 obese type 2 diabetes patients, 8 weeks, 2×4 mg per day, group mean, after vs before treatment)	increase of UCP1 level at end of treatment vs. before treatment ([3]; individual patients 1-7, 8 weeks rosiglitazone 2×4 mg per day)	UCP1 mRNA level after treatment, normalized to cyclophilin A ([3]; individual patients 1-7, after 8 weeks rosiglitazone)	UCP1 level at end of treatment relative to control (before treatment) ([3]; individual patients 1-7, control = 100%)	stimulation of UCP1 mRNA expression ([4]; expanded cells (P3), vs untreated control) [fold]	effect on UCP1 mRNA expression ([4]; primary culture cells (PC))	differentiation of CD31+ cells into adipocyte-like multilocular cells [5]	differentiation of CD31- cells into brown adipocytes ([6]; 6 nM, before induction of differentiation (day -3 or -2 to day 0))	fraction of CD31- cells differentiated into adipocyte-like multilocular cells ([6]; MDM containing the compound)	differentiation of CD56+ cells into adipocyte-like multilocular cells [7]
CN(CCOc1ccc(CC2SC(=O)NC2=O)cc1)c1ccccn1 (centres unmarked) [rosiglitazone]	507-553 fold	105,542	7	about 1.6 fold	180% and 8% and 310% and 10% and 50% and 80%	730 arbitrary units and 600 arbitrary units and 556 arbitrary units and 142 arbitrary units and 652 arbitrary units and 453 arbitrary units and 677 arbitrary units	280% and 108% and 410% and 110% and 150% and 100% and 180%	8	no effect				
B1	78-127 fold									did not differentiate	strongly promoted	virtually all	did not differentiate
